Source: patent US11767295B2, “Isoindole derivative” (TIANJIN HEMAY PHARMACEUTICAL CO., LTD., priority 2018, dated 2023)

Legend:
Type in all cases: in vivo
[1] = system: DNCB-induced atopic dermatitis in Balb/c mice; assay: Efficacy evaluation test of DNCB-induced atopic dermatitis in Balb/c mice model (Biological Example 1); conditions: BID × 10
Experimental: 60 healthy male SPF Balb/c mice, each of which the body weight was 19-21 g, were randomly divided into 6 groups by body weight. There were 10 mice in each group.
(§1) Before the test, the hair around the right ear of the mouse was removed to reduce the interference in the drug adhesion to the hair.
(§2) The start of the test was recorded as Day 1. The specific time for measuring ear thickness was slightly adjusted based on FIG. 1. After the end of the 18th day of the test, blood was taken from each animal to detect the concentration of immunoglobulin (IgE) in the serum (in accordance with the kit instructions). Both ears of the animal were cut off. Ear pieces were cut by an 8 mm punch at the fixed position of the ears and weighed. Differences in the swelling degrees of two ears were calculated.
(§3) The changes in mouse ear thickness and the ear weights of the same area and the IgE concentrations in the serum among different groups on the 18th day were analyzed and compared statistically with One-Way Anova in SPSS 17, respectively. The G test method was used to delete outliers. p<0.05 indicated there were statistical differences. Ear swelling degree (mg)=right ear weight (mg)−left ear weight (mg); Ear thickness change (mm)=right ear thickness (mm)−left ear thickness (mm); Inhibitory rate of ear swelling degree (%)=1−(ear swelling degree of drug administration group−ear swelling degree of blank control group)/(ear swelling degree of model control group−ear swelling degree of blank control group)×100%; Inhibitory rate of ear thickness change (%)=1−(ear thickness change of drug administration group−ear thickness change of blank control group)/(ear thickness change of model control group−ear thickness change of blank control group)×100%; Inhibitory rate of IgE (%)=1−(IgE concentration in administration group−IgE concentration in blank control group)/(IgE concentration in model control group−IgE concentration in blank control group)×100%.

[2] = system: DNCB-induced atopic dermatitis in Balb/c mice; assay: Efficacy evaluation test of DNCB-induced atopic dermatitis in Balb/c mice model (Biological Example 3); conditions: BID × 11
Experimental: 30 healthy male SPF Balb/c mice, each of which the weight was 19-21 g, were randomly divided into 3 groups by body weight. There were 10 mice in each group.
as §1
as §2, with “thickness and body weight” for “thickness”, “FIG. 3.” for “FIG. 1.”, “the Day 19” for “the 18th day”, “swelling degree” for “swelling degrees”
as §3, with “of” for “among”, “19th” for “18th”

[3] = system: Phorbol ester (TPA)-induced ear swelling in mice; assay: Inhibition of phorbol ester (TPA)-induced ear swelling in mice (Biological Example 4); conditions: ICR mice, 30 mg/mL in acetone, 40 μL in 2 administrations on right ear; 5 hours after TPA modeling
Experimental: 40 male ICR mice were selected and divided into 5 groups. There were 8 mice in each group.
Before the test, the animals were grouped and the hair around the right ear of the mice was removed.
20 μL of respective drug was applied to the animals in each test group (a blank solvent was applied to the model control group). Modeling and induction were carried out after 1 h 10 min. Except for the blank group, 20 μL of TPA at a concentration of 125 μg/mL were applied to the right ears of the animals for induction. After induction for 10 minutes, 20 μL of respective drug was applied to the right ears of the animals in each test group (a blank solvent was applied to the model control group).
After modeling for 5 hours, ear pieces of both sides on the same location of animals in each group were taken with a punch and weighed to calculate the ear swelling degree, ear swelling rate and inhibitory rate.
The ear swelling degree and ear swelling rate after modeling and administration for 5 hours were analyzed and tested with One-Way ANOVA multiple-group test index in SPSS17.0. P<0.05 indicated there were statistical differences. Ear swelling degree (mg)=right ear weight (mg)−left ear weight (mg); Ear swelling rate (%)=(right ear weight−left ear weight)/left ear weight×100%; Inhibitory rate of ear swelling degree (%)=1−(ear swelling degree of drug administration group−ear swelling degree of blank control group)/(ear swelling degree of model control group−ear swelling degree of blank control group)×100%.

[4] = Balb/c mice, 1 mg/mouse on ear, Day 10, Mean ± S.D.
[5] = Balb/c mice, 1 mg/mouse on ear, Day 17, Mean ± S.D.
[6] = Balb/c mice, 1 mg/mouse on ear, Day 18, Mean ± S.D.
[7] = 0.1 mg/mouse on ear, 19th day, vs model and blank control

## CCOc1cc([C@H](CC(=O)OC)N2C(=O)c3cccc(NC(C)=O)c3C2=O)ccc1OC [Example 10, methyl (S)-3-(4-acetamido-1,3-dioxoisoindolin-2-yl)-3-(3-ethoxy-4-methoxyphenyl)propionate]
[1]; 1 mg/mouse on ear, 18th day, vs model and blank control
  Inhibitory Rate of Ear Swelling Degree: 45.7%
[1]; Balb/c mice, 1 mg/mouse (50 mg/mL, 20 μL) on ear, Day 1, Mean ± S.D.
  Weight Changes of Animals, Day 1: 20.6 ± 0.8 g
[1]; Balb/c mice, 1 mg/mouse on ear, 18th day, vs model and blank control
  Inhibitory Rate of Ear Thickness: 58.8%
[1]; Balb/c mice, 1 mg/mouse on ear, Day 1, Mean ± S.D.
  Ear Thickness Change, Day 1: 0.21 ± 0.01 mm
[1]; [4]
  Ear Thickness Change, Day 10: 0.35 ± 0.07 mm
  Weight Changes of Animals, Day 10: 22.3 ± 1.1 g
[1]; [5]
  Ear Thickness Change, Day 17: 0.46 ± 0.10 mm
  Weight Changes of Animals, Day 17: 21.8 ± 1.3 g
[1]; [6]
  Ear Thickness Change, Day 18: 0.44 ± 0.07 mm
  Weight Changes of Animals, Day 18: 22.4 ± 1.3 g
[1]; Table 4, Balb/c mice, 1 mg/mouse on ear, 18th day
  Ear Thickness: 0.44 ± 0.07 mm
[1]; right minus left ear piece weight (8 mm punch), 1 mg/mouse on ear, 18th day
  Ear Swelling Degree: 13.7 ± 2.9 mg
[1]; serum, 1 mg/mouse on ear, 18th day
  IgE Concentration: 4366.7 ± 1933.9 ng/mL
[1]; serum, 1 mg/mouse on ear, 18th day, vs model and blank control
  Inhibitory Rate of IgE Concentration: 57.5%
[2]; [7]
  Inhibitory Rate of Ear Swelling: 38.5%
  Inhibitory Rate of Ear Thickness: 27.1%
[2]; Balb/c mice, 0.1 mg/mouse (5 mg/mL, 20 μL) on ear, Day 1, Mean
  Weight Changes of Animals, Day 1: 20.5 g
[2]; Balb/c mice, 0.1 mg/mouse on ear, Day 1, Mean ± S.D.
  Ear Thickness Change, Day 1: 0.26 ± 0.01 mm
[2]; Balb/c mice, 0.1 mg/mouse on ear, Day 8, Mean
  Weight Changes of Animals, Day 8: 21.8 g
[2]; Balb/c mice, 0.1 mg/mouse on ear, Day 10, Mean ± S.D.
  Ear Thickness Change, Day 10: 0.52 ± 0.11 mm
[2]; Balb/c mice, 0.1 mg/mouse on ear, Day 12, Mean
  Weight Changes of Animals, Day 12: 21.9 g
[2]; Balb/c mice, 0.1 mg/mouse on ear, Day 14, Mean
  Weight Changes of Animals, Day 14: 22.2 g
[2]; Balb/c mice, 0.1 mg/mouse on ear, Day 16, Mean
  Weight Changes of Animals, Day 16: 22.0 g
[2]; Balb/c mice, 0.1 mg/mouse on ear, Day 17, Mean ± S.D.
  Ear Thickness Change, Day 17: 0.65 ± 0.09 mm
[2]; Balb/c mice, 0.1 mg/mouse on ear, Day 19, Mean
  Weight Changes of Animals, Day 19: 22.3 g
[2]; Balb/c mice, 0.1 mg/mouse on ear, Day 19, Mean ± S.D.
  Ear Thickness Change, Day 19: 0.63 ± 0.05 mm
[2]; Table 11, 0.1 mg/mouse on ear, 19th day
  Ear Thickness: 0.63 mm
[2]; right minus left ear piece weight, 0.1 mg/mouse on ear, 19th day
  Ear Swelling Degree: 7.7 mg
[2]; serum, 0.1 mg/mouse on ear, 19th day
  IgE Concentration: 5543.4 ng/mL
[2]; serum, 0.1 mg/mouse on ear, 19th day, vs model and blank control
  Inhibitory Rate of IgE Concentration: 29.7%
[3]
  Inhibitory Rate of Ear Swelling Degree: 71.7%
